Assay results reported in US20070249670A1, “Glycogen Phosphorylase Inhibitor Compounds and Pharmaceutical Compositions Thereof” (SMITHKLINE BEECHAM CORPORATION, priority 2004, published 2007).

target: T1, human liver glycogen phosphorylase a (HLGPa) (Homo sapiens, UniProt P06737); experiment: Human liver glycogen phosphorylase a enzymatic activity assay (coupled, fluorescent resorufin readout, with and without 10 mM glucose); type: biochemical; settings: human liver glycogen phosphorylase a enzymatic activity assay
T1 construct: creating a full-length cDNA fused at the 5′ end to codons for methionine-glycine-alanine-histidine; 6xHis tag (leader Met-Gly-Ala-His6-Gly-Gly) (N); made in house; host or cells: E. coli (bacterial expression plasmid pTXK1007LTev)
T1 sequence (P06737 2-847 limits assumed): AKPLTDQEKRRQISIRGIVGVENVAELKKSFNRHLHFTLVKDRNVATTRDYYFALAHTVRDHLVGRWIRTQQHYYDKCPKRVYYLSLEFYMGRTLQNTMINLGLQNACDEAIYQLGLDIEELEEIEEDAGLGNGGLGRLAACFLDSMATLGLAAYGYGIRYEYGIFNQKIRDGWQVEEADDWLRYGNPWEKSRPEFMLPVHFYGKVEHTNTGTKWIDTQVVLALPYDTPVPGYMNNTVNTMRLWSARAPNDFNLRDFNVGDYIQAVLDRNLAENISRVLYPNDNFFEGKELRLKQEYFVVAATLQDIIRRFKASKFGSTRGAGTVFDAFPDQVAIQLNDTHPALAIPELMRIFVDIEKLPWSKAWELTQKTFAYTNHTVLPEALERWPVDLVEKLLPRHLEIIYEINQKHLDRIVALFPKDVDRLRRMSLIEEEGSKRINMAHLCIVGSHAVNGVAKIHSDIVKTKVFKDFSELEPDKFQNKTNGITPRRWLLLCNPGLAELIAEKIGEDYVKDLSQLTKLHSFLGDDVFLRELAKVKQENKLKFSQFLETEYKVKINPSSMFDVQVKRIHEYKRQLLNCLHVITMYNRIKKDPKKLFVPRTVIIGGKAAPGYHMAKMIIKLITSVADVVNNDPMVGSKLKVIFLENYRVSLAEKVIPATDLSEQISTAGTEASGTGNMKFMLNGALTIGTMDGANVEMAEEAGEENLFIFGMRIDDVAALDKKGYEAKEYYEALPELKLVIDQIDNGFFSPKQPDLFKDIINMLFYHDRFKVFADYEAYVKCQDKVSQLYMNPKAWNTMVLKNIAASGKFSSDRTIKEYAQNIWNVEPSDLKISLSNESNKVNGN

IC50 [nM]	SMILES
700	Cc1cccc(Cl)c1NC(=O)Nc1cc2ccccc2cc1C(=O)N[C@@H](CCC(=O)O)C(=O)O [Example 86, N-[3-({[(2-chloro-6-methylphenyl)amino]carbonyl}amino)-2-naphthoyl]-L-glutamic acid]
7	COc1ccc(-c2ccc(C(=O)N[C@H](C(=O)O)C3CCCCC3)c(NC(=O)Nc3c(C)cc(C)cc3C)c2)cc1 [Example 193, (2S)-Cyclohexyl({[4′-(methyloxy)-3-({[(2,4,6-trimethylphenyl)amino]carbonyl}amino)-4-biphenylyl]carbonyl}amino)ethanoic acid]
770	O=C(Nc1sc(-c2cccnc2)cc1C(=O)N[C@H](C(=O)O)C1CCCCC1)Nc1c(Cl)cccc1Cl [Example 415, (2S)-cyclohexyl({[2-({[(2,6-dichlorophenyl)amino]carbonyl}amino)-5-(3-pyridinyl)-3-thienyl]carbonyl}amino)ethanoic acid]
13	O=C(Nc1cc2ccccc2cc1C(=O)NC(C(=O)O)[C@H]1CC[C@H](C(F)(F)F)CC1)Nc1c(Cl)cc(OC(F)(F)F)cc1Cl (stereo partly drawn) [Example 466, {[(3-{[({2,6-dichloro-4-[(trifluoromethyl)oxy]phenyl}amino)carbonyl]amino}-2-naphthalenyl)carbonyl]amino}[trans-4-(trifluoromethyl)cyclohexyl]acetic acid]
2110	COc1ccc(-c2cc(NC(=O)Nc3c(C)cc(C)cc3C)c(C(=O)N[C@@H](C(=O)O)C(C)C)s2)cc1 [Example 441, N-{[5-[4-(methyloxy)phenyl]-3-({[(2,4,6-trimethylphenyl)amino]carbonyl}amino)-2-thienyl]carbonyl}-D-valine]
4	COc1ccc(-c2cc(NC(=O)Nc3c(C)cc(C)cc3C)c(C(=O)NC3(C(=O)O)CCCCCC3)s2)cc1 [Example 453, 1-({[5-[4-(methyloxy)phenyl]-3-({[(2,4,6-trimethylphenyl)amino]carbonyl}amino)-2-thienyl]carbonyl}amino)cycloheptanecarboxylic acid]
52	Cc1cc(C)c(NC(=O)Nc2cc3ccccc3cc2C(=O)N[C@@H](Cc2ccccc2)C(=O)O)c(C)c1 [Example 514, N-{[3-({[(2,4,6-trimethylphenyl)amino]carbonyl}amino)-2-naphthalenyl]carbonyl}-L-phenylalanine]
20	CCCCc1cc(C)c(NC(=O)Nc2cc(F)ccc2C(=O)N[C@H](C(=O)O)C2CCCCC2)c(C)c1 [Example 480, (2S)-({[2-({[(4-butyl-2,6-dimethylphenyl)amino]carbonyl}amino)-4-fluorophenyl]carbonyl}amino)(cyclohexyl)ethanoic acid]
6	C[C@](NC(=O)c1cc2ccccc2cc1NC(=O)Nc1c(Cl)cc(OC(F)(F)F)cc1Cl)(C(=O)O)C1CCCCC1 [Example 465, 2-cyclohexyl-N-[(3-{[({2,6-dichloro-4-[(trifluoromethyl)oxy]phenyl}amino)carbonyl]amino}-2-naphthalenyl)carbonyl]-L-alanine]
5250	Cc1cccc(C)c1NC(=O)Nc1sc2c(c1C(=O)N[C@@H](CC(=O)O)C(=O)O)CCCC2 [Example 132, N-{[2-({[(2,6-dimethylphenyl)amino]carbonyl}amino)-4,5,6,7-tetrahydro-1-benzothien-3-yl]carbonyl}-L-aspartic acid]
1960	Cc1cccc(C)c1NC(=O)Nc1cc2ccccc2cc1C(=O)N[C@H](C(=O)O)C(C)C [Example 21, N-[3-({[(2,6-dimethylphenyl)amino]carbonyl}amino)-2-naphthoyl]-L-valine]
3260	Cc1cccc(Cl)c1NC(=O)Nc1sc2c(c1C(=O)N[C@H](C(=O)O)C1CCCCC1)CCCC2 [Example 139, (2S)-({[2-({[(2-chloro-6-methylphenyl)amino]carbonyl}amino)-4,5,6,7-tetrahydro-1-benzothien-3-yl]carbonyl}amino)(cyclohexyl)acetic acid]
490	Cc1cccc(C)c1NC(=O)Nc1cc2ccccc2cc1C(=O)N[C@@H](CC1CCCCC1)C(=O)O [Example 99, 3-cyclohexyl-N-[3-({[(2,6-dimethylphenyl)amino]carbonyl}amino)-2-naphthoyl]-L-alanine]
27	Cc1cc(C)c(NC(=O)Nc2cc(-c3ccc(CO)cc3)ccc2C(=O)N[C@H](C(=O)O)C2CCCCC2)c(C)c1 [Example 198, (2S)-Cyclohexyl({[4′-(hydroxymethyl)-3-({[(2,4,6-trimethylphenyl)amino]carbonyl}amino)-4-biphenylyl]carbonyl}amino)ethanoic acid]
2	Cc1cc(C)c(NC(=O)Nc2cc(-c3ccccc3)ccc2C(=O)NC2(C(=O)O)CCCCCCC2)c(C)c1 [Example 529, 1-({[3-({[(2,4,6-Trimethylphenyl)amino]carbonyl}amino)-4-biphenylyl]carbonyl}amino)cyclooctanecarboxylic acid]
6410	Cc1ccccc1NC(=O)Nc1cc2ccccc2cc1C(=O)N[C@H](C(=O)O)[C@@H](C)O [Example 14, N-[3-({[(2-methylphenyl)amino]carbonyl}amino)-2-naphthoyl]-L-threonine]

same assay, conditions: human liver glycogen phosphorylase a; table does not say whether with or without 10 mM glucose

IC50 [nM]	SMILES
14	Cc1cc(C)c(NC(=O)Nc2cc(-c3ccc(F)c(F)c3)ccc2C(=O)N[C@H](C(=O)O)C2CCCCC2)c(C)c1 [Example 209, (2S)-Cyclohexyl({[3′,4′-difluoro-3-({[(2,4,6-trimethylphenyl)amino]carbonyl}amino)-4-biphenylyl]carbonyl}amino)ethanoic acid]
6590	O=C1CCC(NC(=O)c2cc3ccccc3cc2NC(=O)Nc2c(Cl)cccc2Cl)(C(=O)O)CC1 [Example 292, 1-({[3-({[(2,6-dichlorophenyl)amino]carbonyl}amino)-2-naphthalenyl]carbonyl}amino)-4-oxocyclohexanecarboxylic acid]
4	Cc1cc(C)c(NC(=O)Nc2cc(-c3ccc4c(c3)OCCO4)ccc2C(=O)N[C@H](C(=O)O)C2CCCCC2)c(C)c1 [Example 228, (2S)-Cyclohexyl({[4-(2,3-dihydro-1,4-benzodioxin-6-yl)-2-({[(2,4,6-trimethylphenyl)amino]carbonyl}amino)phenyl]carbonyl}amino)ethanoic acid]
360	CCCC(CCC)(NC(=O)c1cc2ccccc2cc1NC(=O)Nc1c(Cl)cccc1Cl)C(=O)O [Example 316, N-{[3-({[(2,6-dichlorophenyl)amino]carbonyl}amino)-2-naphthalenyl]carbonyl}-2-propylnorvaline]
1990	COc1ccc(-c2ccc(C(=O)O)c(NC(=O)Nc3c(C)cc(C)cc3C)c2)cc1 [Example 380, 4′-(methyloxy)-3-({[(2,4,6-trimethylphenyl)amino]carbonyl}amino)-4-biphenylcarboxylic acid]
420	Cc1cccc(C)c1NC(=O)Nc1cc2ccccc2cc1C(=O)N1CCC[C@H]1C(=O)O [Example 334, 1-{[3-({[(2,6-dimethylphenyl)amino]carbonyl}amino)-2-naphthalenyl]carbonyl}-L-proline]
990	COC(=O)[C@H](CC(=O)O)NC(=O)c1ccc(-c2ccc(OC)cc2)cc1NC(=O)Nc1c(C)cc(C)cc1C [Example 372, (3S)-4-(methyloxy)-3-({[4′-(methyloxy)-3-({[(2,4,6-trimethylphenyl)amino]carbonyl}amino)-4-biphenylyl]carbonyl}amino)-4-oxobutanoic acid]
470	Cc1cc(C)c(NC(=O)Nc2cc(-c3ccc(F)c(F)c3)cnc2C(=O)N[C@H](C(=O)O)[C@@H](C)OC(C)(C)C)c(C)c1 [Example 324, N-{[5-(3,4-Difluorophenyl)-3-({[(2,4,6-trimethylphenyl)amino]carbonyl}amino)-2-pyridinyl]carbonyl}-O-(1,1-dimethylethyl)-L-threonine]
27	Cc1cc(C)c(NC(=O)Nc2cc3ccccc3nc2C(=O)N[C@H](C(=O)O)C2CCCCC2)c(C)c1 [Example 300, (2S)-Cyclohexyl({[3-({[(2,4,6-trimethylphenyl)amino]carbonyl}amino)-2-quinolinyl]carbonyl}amino)ethanoic acid]
1680	Cc1cc(C)c(NC(=O)Nc2cc(F)ccc2C(=O)N[C@@H](CC(=O)O)C(=O)O)c(C)c1 [Example 365, N-{[4-fluoro-2-({[(2,4,6-trimethylphenyl)amino]carbonyl}amino)phenyl]carbonyl}-L-aspartic acid]
530	Cc1cc(C)c(NC(=O)Nc2cc(F)ccc2C(=O)N[C@H](C(=O)O)[C@@H](C)OC(C)(C)C)c(C)c1 [Example 226, O-(1,1-Dimethylethyl)-N-{[4-fluoro-2-({[(2,4,6-trimethylphenyl)amino]carbonyl}amino)phenyl]carbonyl}-L-threonine]
